Reference: patent publication EP2955182A1, “Pyridazinones for the treatment of cancer” (Max-Planck-Gesellschaft zur Förderung der Wissenschaften …, priority 2014, dated 2015)

target: PDEδ (Homo sapiens, UniProt O43924); assay: Fluorescence polarization competition binding assay (displacement titration of labeled Atorvastatin-probe); details: fluorescence polarization assay, displacement of fluorescent-tagged Atorvastatin analog from PDEδ
Source text: Example C.2: Displacement titrations of labeled Atorvastatin-probe for the determination of KD values:
Table 3. KD values for compounds of general formula (I) as determined by means of fluorescence polarization assay

Compound | Kd [nM]
Cc1c(Cl)cccc1NC(=O)CCCn1nc(C)c2c(C)n(-c3ccccc3)nc2c1=O [Compound 29, N-(3-chloro-2-methylphenyl)-4-(3,4-dimethyl-7-oxo-2-phenyl-2H-pyrazolo[3,4-d]pyridazin-6(7H)-yl)butanamide] | < 30

same assay, conditions: fluorescence polarization assay, displacement of fluorescent-tagged Atorvastatin analog from PDEδ; read-out: KD

Compound | Kd [nM]
Cc1c2cnn(-c3ccccc3)c(=O)c2c(C)n1CCCC(=O)NCc1ccccc1 [Compound 1, N-benzyl-4-(5,7-dimethyl-1-oxo-2-phenyl-1H-pyrrolo[3,4-d]pyridazin-6(2H)-yl)butanamide] | 30 to 100
Cc1c2cnn(-c3ccccc3)c(=O)c2c(C)n1CCCC(=O)NCc1cccs1 [Compound 6, 4-(5,7-dimethyl-1-oxo-2-phenyl-1H-pyrrolo[3,4-d]pyridazin-6(2H)-yl)-N-(thiophen-2-ylmethyl)butanamide] | 100 to 1000
Cc1c2cnn(-c3ccccc3)c(=O)c2c(C)n1CCCC(=O)NCc1ccccn1 [Compound 8, 4-(5,7-dimethyl-1-oxo-2-phenyl-1H-pyrrolo[3,4-d]pyridazin-6(2H)-yl)-N-(pyridin-2-ylmethyl)butanamide] | 100 to 1000
Cc1c2cnn(-c3ccccc3)c(=O)c2c(C)n1CCCC(=O)NC1CC1 [Compound 9, N-cyclopropyl-4-(5,7-dimethyl-1-oxo-2-phenyl-1H-pyrrolo[3,4-d]pyridazin-6(2H)-yl)butanamide] | 100 to 1000
Cc1c2cnn(-c3ccccc3)c(=O)c2c(C)n1CCCC(=O)NC1CCCC1 [Compound 10, N-cyclopentyl-4-(5,7-dimethyl-1-oxo-2-phenyl-1H-pyrrolo[3,4-d]pyridazin-6(2H)-yl)butanamide] | 30 to 100
Cc1c2cnn(-c3ccccc3)c(=O)c2c(C)n1CCCC(=O)NC1CCCCC1 [Compound 11, N-cyclohexyl-4-(5,7-dimethyl-1-oxo-2-phenyl-1H-pyrrolo[3,4-d]pyridazin-6(2H)-yl)butanamide] | < 30
Cc1c2cnn(-c3ccccc3)c(=O)c2c(C)n1CCCC(=O)NC1CCC(C)CC1 (centres unmarked) [Compound 12, 4-(5,7-dimethyl-1-oxo-2-phenyl-1H-pyrrolo[3,4-d]pyridazin-6(2H)-yl)-N-(4-methylcyclohexyl)butanamide] | < 30
Cc1c2cnn(-c3ccccc3)c(=O)c2c(C)n1CCCC(=O)NC1CCCCC1C (centres unmarked) [Compound 13, 4-(5,7-dimethyl-1-oxo-2-phenyl-1H-pyrrolo[3,4-d]pyridazin-6(2H)-yl)-N-(2-methylcyclohexyl)butanamide] | < 30
Cc1c2cnn(-c3ccccc3)c(=O)c2c(C)n1CCCC(=O)NC1CCCC(C)C1C (centres unmarked) [Compound 14, 4-(5,7-dimethyl-1-oxo-2-phenyl-1H-pyrrolo[3,4-d]pyridazin-6(2H)-yl)-N-(2,3-dimethylcyclohexyl)butanamide] | < 30
Cc1nn(CCCC(=O)NCc2ccco2)c(=O)c2nn(-c3ccccc3)c(C)c12 [Compound 30, 4-(3,4-dimethyl-7-oxo-2-phenyl-2H-pyrazolo[3,4-d]pyridazin-6(7H)-yl)-N-(furan-2-ylmethyl)butanamide] | 30 to 100
Cc1nn(CCCC(=O)NCc2ccccc2)c(=O)c2nn(-c3ccccc3)c(C)c12 [Compound 31, N-benzyl-4-(3,4-dimethyl-7-oxo-2-phenyl-2H-pyrazolo[3,4-d]pyridazin-6(7H)-yl)butanamide] | 30 to 100
COc1ccc(CNC(=O)CCCn2nc(C)c3c(C)n(-c4ccccc4)nc3c2=O)cc1 [Compound 32, 4-(3,4-dimethyl-7-oxo-2-phenyl-2H-pyrazolo[3,4-d]pyridazin-6(7H)-yl)-N-(4-methoxybenzyl)butanamide] | 30 to 100
COc1cccc(CNC(=O)CCCn2nc(C)c3c(C)n(-c4ccccc4)nc3c2=O)c1 [Compound 33, 4-(3,4-dimethyl-7-oxo-2-phenyl-2H-pyrazolo[3,4-d]pyridazin-6(7H)-yl)-N-(3-methoxybenzyl)butanamide] | 30 to 100
COc1ccccc1CNC(=O)CCCn1nc(C)c2c(C)n(-c3ccccc3)nc2c1=O [Compound 34, 4-(3,4-dimethyl-7-oxo-2-phenyl-2H-pyrazolo[3,4-d]pyridazin-6(7H)-yl)-N-(2-methoxybenzyl)butanamide] | 30 to 100
Cc1ccc(CNC(=O)CCCn2nc(C)c3c(C)n(-c4ccccc4)nc3c2=O)cc1 [Compound 35, 4-(3,4-dimethyl-7-oxo-2-phenyl-2H-pyrazolo[3,4-d]pyridazin-6(7H)-yl)-N-(4-methylbenzyl)butanamide] | 30 to 100

Results, then the molecule that gave them:

Kd [nM] | Compound
30 to 100 | COc1cccc(CNC(=O)CCCn2c(C)c3cnn(-c4ccccc4)c(=O)c3c2C)c1 [Compound 2, 4-(5,7-dimethyl-1-oxo-2-phenyl-1H-pyrrolo[3,4-d]pyridazin-6(2H)-yl)-N-(3-methoxybenzyl)butanamide]
30 to 100 | Cc1c2cnn(-c3ccccc3)c(=O)c2c(C)n1CCCC(=O)NCc1cccc(Cl)c1 [Compound 3, N-(3-chlorobenzyl)-4-(5,7-dimethyl-1-oxo-2-phenyl-1H-pyrrolo[3,4-d]pyridazin-6(2H)-yl)butanamide]
< 30 | Cc1c2cnn(-c3ccccc3)c(=O)c2c(C)n1CCCC(=O)NCc1ccccc1Cl [Compound 4, N-(2-chlorobenzyl)-4-(5,7-dimethyl-1-oxo-2-phenyl-1H-pyrrolo[3,4-d]pyridazin-6(2H)-yl)butanamide]
30 to 100 | Cc1c2cnn(-c3ccccc3)c(=O)c2c(C)n1CCCC(=O)NCc1ccc(Cl)cc1 [Compound 5, N-(4-chlorobenzyl)-4-(5,7-dimethyl-1-oxo-2-phenyl-1H-pyrrolo[3,4-d]pyridazin-6(2H)-yl)butanamide]
100 to 1000 | Cc1c2cnn(-c3ccccc3)c(=O)c2c(C)n1CCCC(=O)NCc1ccco1 [Compound 7, 4-(5,7-dimethyl-1-oxo-2-phenyl-1H-pyrrolo[3,4-d]pyridazin-6(2H)-yl)-N-(furan-2-ylmethyl)butanamide]
< 30 | Cc1c2cnn(-c3ccccc3)c(=O)c2c(C)n1CCCc1nc2ccccc2n1Cc1ccccc1 [Compound 15, 6-(3-(1-benzyl-1H-benzo[d]imidazol-2-yl)propyl)-5,7-dimethyl-2-phenyl-2,6-dihydro-1H-pyrrolo[3,4-d]pyridazin-1-one]
100 to 1000 | Cc1c2cnn(-c3ccccc3)c(=O)c2c(C)n1CCCc1nc(-c2ccccc2)no1 [Compound 16, 5,7-dimethyl-2-phenyl-6-(3-(3-phenyl-1,2,4-oxadiazol-5-yl)propyl)-2,6-dihydro-1H-pyrrolo[3,4-d]pyridazin-1-one]
> 1000 | Cc1ccc(-c2noc(CCCn3c(C)c4cnn(-c5ccccc5)c(=O)c4c3C)n2)cc1 [Compound 17, 5,7-dimethyl-2-phenyl-6-(3-(3-(p-tolyl)-1,2,4-oxadiazol-5-yl)propyl)-2,6-dihydro-1H-pyrrolo[3,4-d]pyridazin-1-one]
> 1000 | COc1ccc(-c2noc(CCCn3c(C)c4cnn(-c5ccccc5)c(=O)c4c3C)n2)cc1 [Compound 18, 6-(3-(3-(4-methoxyphenyl)-1,2,4-oxadiazol-5-yl)propyl)-5,7-dimethyl-2-phenyl-2,6-dihydro-1H-pyrrolo[3,4-d]pyridazin-1-one]
> 1000 | COc1ccc(OC)c(-c2noc(CCCn3c(C)c4cnn(-c5ccccc5)c(=O)c4c3C)n2)c1 [Compound 19, 6-(3-(3-(2,5-dimethoxyphenyl)-1,2,4-oxadiazol-5-yl)propyl)-5,7-dimethyl-2-phenyl-2,6-dihydro-1H-pyrrolo[3,4-d]pyridazin-1-one]
> 1000 | Cc1c2cnn(-c3ccccc3)c(=O)c2c(C)n1CCCc1nc(-c2ccc(C(F)(F)F)cc2)no1 [Compound 20, 5,7-dimethyl-2-phenyl-6-(3-(3-(4-(trifluoromethyl)phenyl)-1,2,4-oxadiazol-5-yl)propyl)-2,6-dihydro-1H-pyrrolo[3,4-d]pyridazin-1-one]
100 to 1000 | Cc1c2cnn(-c3ccccc3)c(=O)c2c(C)n1CCCc1nc(-c2ccc(F)cc2)no1 [Compound 21, 6-(3-(3-(4-fluorophenyl)-1,2,4-oxadiazol-5-yl)propyl)-5,7-dimethyl-2-phenyl-2,6-dihydro-1H-pyrrolo[3,4-d]pyridazin-1-one]
100 to 1000 | Cc1c2cnn(-c3ccccc3)c(=O)c2c(C)n1CCCc1nnc(-c2ccccc2)o1 [Compound 22, 5,7-dimethyl-2-phenyl-6-(3-(5-phenyl-1,3,4-oxadiazol-2-yl)propyl)-2,6-dihydro-1H-pyrrolo[3.4-d]pyridazin-1-one]
> 1000 | Cc1ccc(-c2nnc(CCCn3c(C)c4cnn(-c5ccccc5)c(=O)c4c3C)o2)cc1 [Compound 23, 5,7-dimethyl-2-phenyl-6-(3-(5-(p-tolyl)-1,3,4-oxadiazol-2-yl)propyl)-2,6-dihydro-1H-pyrrolo[3,4-d]pyridazin-1-one]
> 1000 | COc1ccc(-c2nnc(CCCn3c(C)c4cnn(-c5ccccc5)c(=O)c4c3C)o2)cc1 [Compound 24, 6-(3-(5-(4-methoxyphenyl)-1,3,4-oxadiazol-2-yl)propyl)-5,7-dimethyl-2-phenyl-2,6-dihydro-1H-pyrrolo[3,4-d]pyridazin-1-one]
100 to 1000 | COc1ccccc1-c1nnc(CCCn2c(C)c3cnn(-c4ccccc4)c(=O)c3c2C)o1 [Compound 25, 6-(3-(5-(2-methoxyphenyl)-1,3,4-oxadiazol-2-yl)propyl)-5,7-dimethyl-2-phenyl-2,6-dihydro-1H-pyrrolo[3,4-d]pyridazin-1-one]
100 to 1000 | Cc1c2cnn(-c3ccccc3)c(=O)c2c(C)n1CCCc1nnc(-c2ccc(C(F)(F)F)cc2)o1 [Compound 26, 5,7-dimethyl-2-phenyl-6-(3-(5-(4-(trifluoromethyl)phenyl)-1,3,4-oxadiazol-2-yl)propyl)-2,6-dihydro-1H-pyrrolo[3,4-d]pyridazin-1-one]
100 to 1000 | Cc1c2cnn(-c3ccccc3)c(=O)c2c(C)n1CCCc1nnc(-c2ccc(F)cc2)o1 [Compound 27, 6-(3-(5-(4-fluorophenyl)-1,3,4-oxadiazol-2-yl)propyl)-5,7-dimethyl-2-phenyl-2,6-dihydro-1H-pyrrolo[3,4-d]pyridazin-1-one]
> 1000 | Cc1c2cnn(-c3ccccc3)c(=O)c2c(C)n1CCCc1nnc(-c2ccncc2)o1 [Compound 28, 5,7-dimethyl-2-phenyl-6-(3-(5-(pyridin-4-yl)-1,3,4-oxadiazol-2-yl)propyl)-2,6-dihydro-1H-pyrrolo[3,4-d]pyridazin-1-one]
